Test results: DBAASP
Values after ≈ are worked out from the molar mass of the structure shown.

What was measured:
Test in all cases: ≥ marks a high value that may be exact or a test limit, other limits are often not marked, values filed in µg/mL are converted to µM
Staphylococcus aureus = tested on: Staphylococcus aureus
[1] = tested on: Staphylococcus aureus ATCC 25923
Enterobacter cloacae = tested on: Enterobacter cloacae
[2] = tested on: Pseudomonas aeruginosa ATCC 27853
Klebsiella aerogenes = tested on: Klebsiella aerogenes
Escherichia coli ML-35p = tested on: Escherichia coli ML-35p
Pseudomonas aeruginosa = tested on: Pseudomonas aeruginosa
Escherichia coli = tested on: Escherichia coli
Escherichia coli 1 = tested on: Escherichia coli 1
[3] = tested on: Pseudomonas aeruginosa PAO1
[4] = tested on: Escherichia coli ATCC 25922
Candida albicans = tested on: Candida albicans
Proteus mirabilis = tested on: Proteus mirabilis
Saccharomyces cerevisiae = tested on: Saccharomyces cerevisiae
Serratia marcescens = tested on: Serratia marcescens
Shigella dysenteriae = tested on: Shigella dysenteriae
Micrococcus luteus = tested on: Micrococcus luteus
Bacillus subtilis = tested on: Bacillus subtilis
[5] = tested on: Staphylococcus epidermidis
Salmonella typhimurium = tested on: Salmonella typhimurium
[6] = tested on: Staphylococcus aureus ATCC 9144
[7] = tested on: Corynebacterium glutamicum ATCC 13032
[8] = tested on: Staphylococcus epidermidis ATCC 35984
[9] = tested on: Staphylococcus aureus ATCC 33591
[10] = tested on: Escherichia coli NEB5alpha
[11] = tested on: Bacillus subtilis ATCC 6051
[12] = tested on: Salmonella enterica subsp. enterica serovar Typhimurium C77-31
[13] = tested on: Staphylococcus epidermidis ATCC 12228
[14] = tested on: Bacillus subtilis CMCC 63501
[15] = tested on: Enterococcus faecalis ATCC 29212
[16] = tested on: Salmonella enterica subsp. enterica serovar Pullorum C79-13
[17] = tested on: Staphylococcus aureus ATCC 29213
Escherichia coli UB1005 = tested on: Escherichia coli UB1005
Escherichia coli 078 = tested on: Escherichia coli 078
Escherichia coli K88 = tested on: Escherichia coli K88
Escherichia coli K99 = tested on: Escherichia coli K99
[18] = tested on: Salmonella enterica subsp. enterica serovar Typhimurium ATCC 14028
Escherichia coli HB101 = tested on: Escherichia coli HB101

CC(C)C[C@H](NC(=O)[C@H](CCCCN)NC(=O)[C@H](CCCCN)NC(=O)[C@H](Cc1ccccc1)NC(=O)[C@H](Cc1ccccc1)NC(=O)[C@H](CCCCN)NC(=O)[C@H](CCCCN)NC(=O)[C@@H](N)Cc1ccccc1)C(=O)N[C@@H](CCCCN)C(=O)N[C@@H](CC(N)=O)C(=O)N[C@@H](CO)C(=O)N[C@H](C(=O)N[C@@H](CCCCN)C(=O)N[C@@H](CCCCN)C(=O)N[C@@H](CCCN=C(N)N)C(=O)O)C(C)C [FKKFFKKLKNSVKKR]
MIC (Staphylococcus aureus): 3.63 µM (≈ 7 µg/mL) | MIC [1]: 21.3 µM (≈ 41 µg/mL) | MIC (Enterobacter cloacae): 4.15 µM (≈ 8 µg/mL) | MIC [2]: 4.15 µM (≈ 8 µg/mL) | MIC (Klebsiella aerogenes): 8.82 µM (≈ 17 µg/mL) | MIC (Escherichia coli ML-35p): 2.6 µM (≈ 5 µg/mL) | MIC (Pseudomonas aeruginosa): 3.63 µM (≈ 7 µg/mL) | MIC (Escherichia coli): 6.23 µM (≈ 12 µg/mL) | MIC (Escherichia coli 1): 2.6 µM (≈ 5 µg/mL) | MIC [3]: 3.63 µM (≈ 7 µg/mL) | MIC [4]: 6.75 µM (≈ 13 µg/mL)

CC[C@H](C)[C@H](NC(=O)CN)C(=O)N[C@@H](CC(C)C)C(=O)N[C@@H](CC(=O)O)C(=O)N[C@H](C(=O)N[C@@H](CC(C)C)C(=O)N[C@@H](CCCCN)C(=O)N[C@@H](CCC(N)=O)C(=O)N[C@@H](Cc1ccccc1)C(=O)N[C@@H](C)C(=O)N[C@@H](CCCCN)C(=O)NCC(=O)N[C@H](C(=O)NCC(=O)N[C@@H](CCCCN)C(=O)N[C@@H](CC(=O)O)C(=O)N[C@@H](CC(C)C)C(=O)N[C@H](C(=O)N[C@@H](CCCCN)C(=O)NCC(=O)N[C@@H](C)C(=O)N[C@@H](C)C(=O)N[C@@H](CCC(N)=O)C(=O)NCC(=O)O)C(C)C)C(C)C)[C@@H](C)O [GILDTLKQFAKGVGKDLVKGAAQG]
MIC (Candida albicans): > 41.4 µM | MIC (Proteus mirabilis): 20.7 µM (≈ 50 µg/mL) | MIC (Saccharomyces cerevisiae): 20.7 µM (≈ 50 µg/mL) | MIC (Serratia marcescens): ≥ 41.4 µM | MIC (Pseudomonas aeruginosa): 20.7 µM (≈ 50 µg/mL) | MIC (Shigella dysenteriae): 20.7 µM (≈ 50 µg/mL) | MIC (Escherichia coli): 20.7 µM (≈ 50 µg/mL) | MIC (Micrococcus luteus): 2.07 µM (≈ 5 µg/mL) | MIC (Bacillus subtilis): ≥ 41.4 µM | MIC [5]: 31.1 µM (≈ 75 µg/mL) | MIC (Salmonella typhimurium): ≥ 41.4 µM

CC(C)[C@H](NC(=O)[C@H](CCCCN)NC(=O)[C@H](C)NC(=O)[C@@H](NC(=O)[C@@H](NC(=O)[C@H](CCCN=C(N)N)NC(=O)[C@H](CCCN=C(N)N)NC(=O)[C@H](Cc1c[nH]c2ccccc12)NC(=O)[C@H](Cc1c[nH]c2ccccc12)NC(=O)CN)[C@@H](C)O)C(C)C)C(=O)N[C@@H](CCCN=C(N)N)C(=O)N[C@@H](CC(N)=O)C(=O)N[C@@H](C)C(=O)NCC(=O)N[C@@H](CCCN=C(N)N)C(=O)N[C@@H](CCCCN)C(N)=O [GWWRRTVAKVRNAGRK]
MIC [2]: 3.1 µM (≈ 6.01 µg/mL) | MIC [6]: 12.5 µM (≈ 24.3 µg/mL) | MIC [7]: 0.8 µM (≈ 1.55 µg/mL) | MIC [4]: 3.1 µM (≈ 6.01 µg/mL)

CC[C@H](C)[C@H](N)C(=O)NCC(=O)N[C@@H](CCCCN)C(=O)N[C@@H](Cc1ccccc1)C(=O)N[C@@H](CC(C)C)C(=O)N[C@@H](CCCCN)C(=O)N[C@@H](CCCCN)C(=O)N[C@@H](C)C(=O)N[C@@H](CCCCN)C(=O)N[C@@H](CCCCN)C(=O)N[C@@H](Cc1ccccc1)C(=O)NCC(N)=O [IGKFLKKAKKFG]
MIC [1]: > 375 µM | MIC [2]: 133 µM (≈ 181 µg/mL) | MIC [8]: ≥ 188 µM | MIC [9]: ≥ 375 µM

CC[C@H](C)[C@H](N)C(=O)N[C@H](C(=O)N[C@@H](CC(C)C)C(=O)N[C@@H](CC(N)=O)C(=O)N1CCC[C@H]1C(=O)N[C@@H](Cc1c[nH]c2ccccc12)C(=O)N[C@@H](CC(=O)O)C(=O)N[C@@H](CCC(N)=O)C(=O)N[C@H](C(=O)N[C@@H](CCCCN)C(=O)O)C(C)C)C(C)C [IVLNPWDQVK]
MIC [10]: ≥ 681 µM | MIC [11]: ≥ 1360 µM | MIC [4]: 1360 µM (≈ 1650 µg/mL)

CC(C)C[C@H](N)C(=O)N[C@@H](CCCCN)C(=O)N[C@@H](CCCCN)C(=O)N[C@@H](C)C(=O)N[C@@H](CCCCN)C(=O)N[C@@H](CCCCN)C(=O)N[C@@H](Cc1ccccc1)C(=O)NCC(=O)N[C@@H](CCCCN)C(=O)N[C@@H](C)C(=O)N[C@@H](Cc1ccccc1)C(=O)N[C@H](C(N)=O)C(C)C [LKKAKKFGKAFV]
MIC [1]: > 375 µM | MIC [2]: 265 µM (≈ 362 µg/mL) | MIC [8]: ≥ 375 µM | MIC [9]: ≥ 375 µM

NC(=O)[C@@H]1CCCN1C(=O)[C@H](CCCN=C(N)N)NC(=O)[C@H](CS)NC(=O)[C@H](Cc1ccccc1)NC(=O)[C@H](CCCN=C(N)N)NC(=O)[C@H](CCCN=C(N)N)NC(=O)[C@H](CCCN=C(N)N)NC(=O)[C@H](CS)NC(=O)[C@H](CCCN=C(N)N)NC(=O)[C@@H]1CCCN1 [PRCRRRFCRP]
MIC [12]: ≥ 128 µM | MIC [2]: > 128 µM | MIC [13]: > 128 µM | MIC [14]: 16 µM (≈ 21.5 µg/mL) | MIC [15]: > 128 µM | MIC [16]: ≥ 128 µM | MIC [17]: > 128 µM | MIC [4]: 16 µM (≈ 21.5 µg/mL)

CC[C@H](C)[C@H](NC(=O)[C@H](C)NC(=O)CNC(=O)[C@H](CCCCN)NC(=O)[C@H](CCC(=O)O)NC(=O)[C@H](CCC(=O)O)NC(=O)[C@H](CC(=O)O)NC(=O)[C@H](CCC(=O)O)NC(=O)[C@H](CC(=O)O)NC(=O)[C@H](CCCN=C(N)N)NC(=O)CNC(=O)[C@H](CCC(N)=O)NC(=O)[C@H](CC(C)C)NC(=O)[C@H](CCCCN)NC(=O)[C@H](CC(=O)O)NC(=O)[C@@H](NC(=O)[C@@H](NC(=O)[C@H](Cc1cnc[nH]1)NC(=O)[C@@H](N)CCCN=C(N)N)[C@@H](C)CC)C(C)C)C(=O)N[C@H](C(=O)N[C@@H](CCCCN)C(=O)N[C@H](C(=O)N[C@@H](CCCCN)C(=O)NCC(=O)NCC(=O)N[C@@H](CC(C)C)C(=O)O)C(C)C)C(C)C [RHIVDKLQGRDEDEEKGAIVKVKGGL]
MIC [10]: ≥ 500 µM | MIC [11]: ≥ 500 µM

CC[C@H](C)[C@H](NC(=O)[C@H](Cc1c[nH]c2ccccc12)NC(=O)[C@H](CCCCN)NC(=O)[C@H](Cc1c[nH]c2ccccc12)NC(=O)[C@@H](NC(=O)[C@H](CCCCN)NC(=O)CNC(=O)[C@@H](NC(=O)[C@H](CCCCN)NC(=O)[C@H](CCCCN)NC(=O)[C@H](Cc1c[nH]c2ccccc12)NC(=O)[C@@H](N)CCCN=C(N)N)[C@@H](C)CC)C(C)C)C(N)=O [RWKKIGKVWKWI]
MIC [12]: ≥ 32 µM | MIC (Escherichia coli UB1005): 8 µM (≈ 13 µg/mL) | MIC (Escherichia coli 078): 8 µM (≈ 13 µg/mL) | MIC [1]: 32 µM (≈ 52.1 µg/mL) | MIC (Escherichia coli K88): 2 µM (≈ 3.25 µg/mL) | MIC (Escherichia coli K99): 4 µM (≈ 6.51 µg/mL) | MIC [13]: 64 µM (≈ 104 µg/mL) | MIC [14]: 8 µM (≈ 13 µg/mL) | MIC [18]: 32 µM (≈ 52.1 µg/mL) | MIC [15]: 32 µM (≈ 52.1 µg/mL) | MIC [16]: 2 µM (≈ 3.25 µg/mL) | MIC [17]: 32 µM (≈ 52.1 µg/mL) | MIC [4]: 8 µM (≈ 13 µg/mL)

NC(N)=NCCC[C@H](NC(=O)[C@@H](N)CO)C(=O)N[C@@H](Cc1c[nH]c2ccccc12)C(=O)N1CCC[C@H]1C(=O)N[C@@H](CO)C(=O)N1CCC[C@H]1C(=O)NCC(=O)N[C@@H](CCCN=C(N)N)C(=O)N1CCC[C@H]1C(=O)N[C@@H](CCCN=C(N)N)C(=O)N1CCC[C@H]1C(=O)N[C@@H](Cc1ccccc1)C(=O)N1CCC[C@H]1C(=O)NCC(=O)O [SRWPSPGRPRPFPG]
MIC [2]: > 100 µM | MIC [6]: ≥ 100 µM | MIC (Escherichia coli HB101): ≥ 100 µM | MIC [7]: ≥ 100 µM | MIC [4]: > 100 µM
